The record followed here is patent US20130059730A1, “INSECTICIDAL COMBINATION” (Kyoyu Agri Company, Ltd., priority 2010, published 2013).

Holding throughout (type): in vivo
For assay [1], the system named is Kanzawa spider mite (Tetranychus kanzawai), sensitive strain to hexythiazox, pyridaben and/or fenpyroximate. Nature of the assay: Example 3: kanzawa spider mite, sensitive strain, egg/larva efficacy. The text has this:
(§1) The action to be expected E for a given active ingredient combination obeys the so-called COLBY formula and can be calculated as follows (COLBY, S.R. “Calculating synergistic and antagonistic responses of herbicide combination”. Weeds, Vol. 15, pages 20-22; 1967): • ppm=milligrams of active ingredient (=a.i.) per liter of spray mixture • X=% action by active ingredient A) using p ppm of active ingredient • Y=% action by active ingredient B) using q ppm of active ingredient.
(§2) According to COLBY, the expected (additive) action of active ingredients A)+B) using p+q ppm of active ingredient is
(§3) If the action actually observed (0) is greater than the expected action (E), then the action of the combination is super-additive, i.e. there is a synergistic effect.
(§4) Two-spotted spider mites (sensitive strain to hexythiazox, pyridaben and/or fenpyroximate) were allowed to oviposit on leaves of kidney beans for one day, and the female adults were then removed. The leaves were sprayed by a rotating application tower at 200 ml/m^2 of the predetermined concentration prepared from a product (e.g. the mixture according to the instant invention and the solo active ingredients). Seven days thereafter, the number of unhatched eggs and dead larvae was examined, whereby the live egg rate (%) was determined. The efficacy (observed %) against eggs and larvae is, therefore, calculated based on the following formula: […]
The Example 3 is conducted with use of kanzawa spider mite (sensitive strain to hexythiazox, pyridaben and/or fenpyroximate) in a manner similar to that of Example 1.

In assay [2] the test system is Kanzawa spider mite (Tetranychus kanzawai), resistant strain to hexythiazox, pyridaben and/or fenpyroximate. Nature of the assay: Example 4: kanzawa spider mite, resistant strain, egg/larva efficacy.
Text: as §1, §2, §3, §4
The Example 4 is conducted with use of kanzawa spider mite (resistant strain to hexythiazox, pyridaben and/or fenpyroximate) in a manner similar to that of Example 1.

In assay [3] the test system is Two-spotted spider mite (Tetranychus urticae), resistant strain to hexythiazox, pyridaben and/or fenpyroximate. Description: Example 2: two-spotted spider mite, resistant strain, egg/larva efficacy.
Text: as §1, §2, §3, §4
The Example 2 is conducted with use of two-spotted spider mite (resistant strain to hexythiazox, pyridaben and/or fenpyroximate) in a manner similar to that of Example 1.

Assay [4] deals with Two-spotted spider mite (Tetranychus urticae), sensitive strain to hexythiazox, pyridaben and/or fenpyroximate. Nature of the assay: Example 1: two-spotted spider mite egg/larva efficacy on sprayed kidney bean leaves. The settings on record: 7 days after spray.
Text: as §1, §2, §3, §4

For assay [5] the test system is unchanged. Description: Example 5: two-spotted spider mite, sensitive strain, egg/larva efficacy (other ratio).
Text: as §1, §2, §3, §4
The Example 5 is conducted with use of two-spotted spider mite (sensitive strain to hexythiazox, pyridaben and/or fenpyroximate) in a manner similar to that of Example 1.

As to `CCOc1cc(C(C)(C)C)ccc1C1COC(c2c(F)cccc2F)=N1` (centres unmarked) [Etoxazole, etoxazole], the “observed (%) efficacy against eggs and larvae” value (from here on “observed (%) efficacy”) in assay [1] (rate 0.16 ppm) was 13.6%; in assay [1] (rate 0.31 ppm), 60.8%; in assay [2] (rate 0.63 ppm) it was 19.4%; in assay [2] (rate 1.25 ppm) it was 70.1%; in assay [3] (rate 0.63 ppm), 9.3%; in assay [3] (rate 1.25 ppm), 10.5%. The “observed (%) efficacy” value in assay [4] (rate 0.16 ppm) is 40.6%; in assay [4] (rate 0.31 ppm), 77.7%; in assay [5] (rate 0.06 ppm), 0.0%; in assay [5] (rate 0.13 ppm) it was 15.1%.

In the case of abamectin, the “observed (%) efficacy” value in assay [1] (rate 0.06 ppm) is given as 2.1%; in assay [1] (rate 0.11 ppm), 1.3%; in assay [2] (rate 0.23 ppm) it was 6.3%; in assay [2] (rate 0.45 ppm) it was 43.6%; in assay [3] (rate 0.23 ppm), 0.9%; in assay [3] (rate 0.45 ppm), 6.4%. Besides, the “observed (%) efficacy” value in assay [4] (rate 0.06 ppm) amounted to 0.0%; in assay [4] (rate 0.11 ppm) it was 9.4%; in assay [5] (rate 0.19 ppm), 8.7%; in assay [5] (rate 0.38 ppm), 5.0%.
